According to patent US20170064988A1, “Delivery Systems for Natural High-Potency Sweetener Compositions, Methods for Their Formulation, and Uses” (The Coca-Cola Company, priority 2007, published 2017):

Assays:
[1] = Dissolution of spray-dried amorphous rebaudioside A in water; assay type: physicochemical; details: room temperature, in 5 minutes
Experimental: A solution of rebaudioside A (>97% pure by HPLC) was prepared in double distilled water (12.5 gm in 50 mL, 25% concentration) by stirring the mixture at 40° C. for 5 minutes. An amorphous rebaudioside form of A was formed by immediately using the clear solution for spray drying with the Lab-Plant spray drier SD-04 instrument (Lab-Plant Ltd., West Yorkshire, U.K.). The solution was fed through the feed pump into the nozzle atomizer which atomized it into a spray of droplets with the help of a constant flow of nitrogen/air. […] This dry powder (11-12 g, H2O 6.74%) was discharged continuously from the drying chamber and was collected in a bottle. The material was dissolved rapidly in water at room temperature up to a concentration of 35.0% (w/v) in 5 minutes.

[2] = Rate of dissolution of rebaudioside A polymorphic and amorphous forms in water; assay type: physicochemical

Concentration dissolved rapidly in water [1]	Rate of dissolution in H2O at 25° C. (grade in words) [2]	Rate of dissolution in H2O at 25° C., amount dissolved in 60 minutes ([2]; in 60 minutes)	Rate of dissolution in H2O at 25° C., amount dissolved in 5 minutes [2]	Structure (SMILES)
–	High	–	(>30% in	C=C1C[C@@]23CC[C@H]4[C@@](C)(CCC[C@@]4(C)C(=O)O[C@@H]4O[C@H](CO)[C@@H](O)[C@H](O)[C@H]4O)[C@@H]2CC[C@]1(O[C@@H]1O[C@H](CO)[C@@H](O)[C@H](O[C@@H]2O[C@H](CO)[C@@H](O)[C@H](O)[C@H]2O)[C@H]1O[C@@H]1O[C@H](CO)[C@@H](O)[C@H](O)[C@H]1O)C3 [Form 3, rebaudioside A]
–	High	–	(>35% in	C=C1C[C@@]23CC[C@H]4[C@@](C)(CCC[C@@]4(C)C(=O)O[C@@H]4O[C@H](CO)[C@@H](O)[C@H](O)[C@H]4O)[C@@H]2CC[C@]1(O[C@@H]1O[C@H](CO)[C@@H](O)[C@H](O[C@@H]2O[C@H](CO)[C@@H](O)[C@H](O)[C@H]2O)[C@H]1O[C@@H]1O[C@H](CO)[C@@H](O)[C@H](O)[C@H]1O)C3 [Form 4, rebaudioside A]

Second part, the molecule before the results:

Structure (SMILES)	Concentration dissolved rapidly in water [1]	Rate of dissolution in H2O at 25° C. (grade in words) [2]	Rate of dissolution in H2O at 25° C., amount dissolved in 60 minutes ([2]; in 60 minutes)	Rate of dissolution in H2O at 25° C., amount dissolved in 5 minutes [2]
C=C1C[C@@]23CC[C@H]4[C@@](C)(CCC[C@@]4(C)C(=O)O[C@@H]4O[C@H](CO)[C@@H](O)[C@H](O)[C@H]4O)[C@@H]2CC[C@]1(O[C@@H]1O[C@H](CO)[C@@H](O)[C@H](O[C@@H]2O[C@H](CO)[C@@H](O)[C@H](O)[C@H]2O)[C@H]1O[C@@H]1O[C@H](CO)[C@@H](O)[C@H](O)[C@H]1O)C3 [Example F, rebaudioside A]	≤ 35.0 % (w/v)	–	–	–
C=C1C[C@@]23CC[C@H]4[C@@](C)(CCC[C@@]4(C)C(=O)O[C@@H]4O[C@H](CO)[C@@H](O)[C@H](O)[C@H]4O)[C@@H]2CC[C@]1(O[C@@H]1O[C@H](CO)[C@@H](O)[C@H](O[C@@H]2O[C@H](CO)[C@@H](O)[C@H](O)[C@H]2O)[C@H]1O[C@@H]1O[C@H](CO)[C@@H](O)[C@H](O)[C@H]1O)C3 [Form 1, rebaudioside A]	–	Very low	(<0.2% in	–
C=C1C[C@@]23CC[C@H]4[C@@](C)(CCC[C@@]4(C)C(=O)O[C@@H]4O[C@H](CO)[C@@H](O)[C@H](O)[C@H]4O)[C@@H]2CC[C@]1(O[C@@H]1O[C@H](CO)[C@@H](O)[C@H](O[C@@H]2O[C@H](CO)[C@@H](O)[C@H](O)[C@H]2O)[C@H]1O[C@@H]1O[C@H](CO)[C@@H](O)[C@H](O)[C@H]1O)C3 [Form 2, rebaudioside A]	–	Intermediate	–	(<30% in
